Laboratory results: US12642870B2, “Compositions and methods for delivery of nucleic acids” (Poseida Therapeutics, Inc., priority 2020, dated 2026)

Tests used:
[1] = Physical characterisation of mRNA-containing LNPs (DLS, NTA, zeta potential); assay type: physicochemical; details: Fluc mRNA LNPs: compound/DOPE/Cholesterol/DMG-PEG2000 41.44/45.85/10/2.7, lipid:RNA 40:1 (w/w)
Protocol: (§1) A series of ten multi-component LNP compositions of the present disclosure comprising exemplary compounds of Formula (I) was prepared by combining various percentages of an exemplary compound of Formula (I), the phospholipid DOPE, the structural lipid cholesterol (Chol) and 1,2-dimyristoyl-sn-glycerol methoxypolyethylene glycol (DMG-PEG2000; Avanti Polar Lipids, Alabaster, Alabama, USA).
(§2) Individual 25 mg/ml stock solutions were prepared by solubilizing the lipids in 200-proof HPLC-grade ethanol and stock solutions were stored at −80° C. until formulated. At the time of formulation, the lipid stock solutions were briefly allowed to equilibrate to room temp and then placed on a hot plate maintained at a temperature range of 50-55° C.
A 1 mg/mi solution of the desired mRNA to be incorporated into the LNPs was added to 150 mM sodium acetate buffer (pH 5.2) to form a stock solution and kept on ice. The lipid phase was mixed with the aqueous m RNA phase inside a microfluidic chip using a NanoAssemblr® instrument (Precision Nanosystems, Vancouver, BC, Canada) according to the manufacturer's instructions to form LNP compositions comprising encapsulated mRNAs.
(§3) The resultant mRNA LNP compositions were then transferred to a Repligen Float-A-Lyzer dialysis device—having a molecular weight cut off (MWCO) of 8-10 kDa (Spectrum Chemical Mfg. Corp, CA, USA) and processed by dialysis against phosphate buffered saline (PBS) (dialysate:dialysis buffer volume at least 1:200 v/v), pH 7.4 overnight at 4° C. (or alternatively room temperature for at least 4 hours), to remove the 25% ethanol and achieve a complete buffer exchange. In some experiments the LNPs were further concentrated by in an Amicon® Ultra-4 centrifugal filter unit, MWCO-30 kDa (Millipore Sigma, USA) spun at ˜4100×g in an ultracentrifuge. The mRNA LNPs were then stored at 4° C. until further use.
A series of multicomponent LNP compositions comprising one of COMPOUNDS 1-8 described in Example 1 and the mRNA encoding flue was prepared according to Example 2 and the physical characteristics of the resulting LNPs were analyzed.
In a separate experiment, LNP compositions of the present disclosure comprising mRNA encoding firefly luciferase (hereafter “Fluc”; TriLink) and COMPOUNDS 1-8 were prepared as described in Example 2 by combining one of COMPOUNDS 1-8, the phospholipid DOPE, the structural lipid cholesterol (Chol) and 1,2-dimyristoyl-sn-glycerol methoxypolyethylene glycol (DMG-PEG2000) in the percentages presented in Table 8: […]

[2] = Physical characterisation of DNA-containing LNPs (DLS, NTA, zeta potential); assay type: physicochemical; details: nano-pB-EF1a-GFP DNA LNPs: compound/DOPE/Cholesterol/DMG-PEG2000 38.0/50.0/10.0/2.0, lipid:DNA 45:1 (w/w)
Protocol: LNP compositions of the present disclosure comprising DNA, a nanoplasmid encoding a piggyBac transposon, wherein the piggyBac transposon comprised GFP under control of the EF1a promoter (herein referred to as the nano-pB-EF1a-GFP), and one of COMPOUNDS 1-8 were prepared as described in Example 3 by combining one of COMPOUNDS 1-8, the phospholipid DOPE, the structural lipid cholesterol (Chol) and 1,2-dimyristoyl-sn-glycerol methoxypolyethylene glycol (DMG-PEG2000) in the following percentages in Table 20: […]

[3] = tested on: BALB/C mice; test: In vivo intramuscular LNP delivery of fLuciferase mRNA, bioluminescent imaging; details: intramuscular 20 μg fLuciferase mRNA, right hind limb, BLI at 4 hr; LNP compound/DOPE/Cholesterol/DMG-PEG2000 33.5/32.0/33.5/1.0, lipid:RNA 25:1
Protocol: (§4) Adult female BALB/C mice (n=2/group) were intramuscularly administered in the right hind limb of each mouse 20 μg of 5′-CleanCap-fLuciferase mRNA (TriLink Biotech) formulated with LNP composition comprising COMPOUND 2 as prepared according to Example 2 in the following percentages shown in Table 16:
The location and extent of luciferase expression in treated and untreated mice were determined at 4 hr and 24 hr by bioluminescent imaging (BLI) of anesthetized mice using an IVIS Lumina in vivo imaging system (Perkin Elmer) according to the manufacturer's instructions. Briefly, mice were anesthetized using isoflurane in oxygen, and placed supine on a heated stage. Mice were then administered D-luciferin (Perkin-Elmer #122799) IP, and BLI was performed.
as §4, with “In another experiment, adult female” for “Adult female”, “comprising one of COMPOUNDS 3-8” for “comprising COMPOUND 2”, “Example 3” for “Example 2”, “Table 18:” for “Table 16:”
The location and extent of luciferase expression in treated and untreated mice were determined at 4 hr by bioluminescent imaging (BLI) of anesthetized mice as described above.

[4] = Particle size and PDI of hand-mixed mRNA or DNA LNPs; assay type: physicochemical; details: for PDI DNA / Particle Size (nm) DNA: hand-mixed DNA LNPs: compound/DOPE/Cholesterol/DMG-PEG2000 38/50/10.0/2.0, lipid:DNA 45:1; for PDI RNA / Particle Size (nm) RNA: hand-mixed mRNA LNPs: compound/DOPE/Cholesterol/DMG-PEG2000 41.44/45.85/10/2.7, lipid:RNA 40:1
Protocol: as §1, with “LNP” for “A series of ten multi-component LNP”, “were” for “was”
as §2
A 1 mg/ml solution of the desired mRNA or DNA to be incorporated into the LNPs was added to 150 mM sodium acetate buffer (pH 5.2) to form a stock solution and kept on ice. The aqueous mRNA or DNA was then added to the lipids as shown in Table 25 or 26 and hand-mixed vigorously with a single channel pipettor.
as §3, with “resultant mRNA or DNA LNP compositions” for “resultant mRNA LNP compositions”, “The mRNA and DNA LNPs were” for “The mRNA LNPs were”
LNP compositions of the present disclosure comprising mRNA or DNA encoding firefly luciferase (hereafter “Flue”; TriLink) and COMPOUNDS 9-21 were prepared as described in Example 14 by combining one of COMPOUNDS 9-21, the phospholipid DOPE, the structural lipid cholesterol (Chol) and 1,2-dimyristoyl-sn-glycerol methoxypolyethylene glycol (DMG-PEG2000) in the percentages presented in Tables 27 and 28:
The physical characteristics of the resulting LNPs were analyzed.

Row | Structure (SMILES) | PDI DNA [4] | Particle Size (nm) DNA [4] [nm] | PDI RNA [4] | Particle Size (nm) RNA [4] [nm] | other results
1 | CC(C)C(CCC(C)C(CCC1CCC(C(=O)NC2CCC(CC3CCC(NC(=O)C4CCC(CCC(SCCN(C)C)C(C)CCC(SCCN(C)C)C(C)C)C(SCCN(C)C)C4)CC3)CC2)CC1SCCN(C)C)SCCN(C)C)SCCN(C)C (stereo not shown) [Compound 5] |  |  |  |  | Diameter (DLS; nm) [1]: 91.8 nm; Diameter (NTA; nm) [1]: 84.4 nm; PDI [1]: 0.389; Total Particles/ml [1]: 7.03E+10 Particles/ml; Zeta Potential (mV) [1]: 0.18 mV; Diameter (DLS; nm) [2]: 82.0 nm; Diameter (NTA; nm) [2]: 85.8 nm; PDI [2]: 0.168; Total Particles/ml [2]: 2.31E+11 Particles/ml; Zeta Potential (mV) [2]: 0.21 mV; Avg IM flux n = 2 [3]: 2.12E+5
2 | CC(C)C(CCC(C)C(CCC1CC2C(=O)N(c3ccc(N4C(=O)C5CC(CCC(SCCN(C)C)C(C)CCC(SCCN(C)C)C(C)C)C(SCCN(C)C)CC5C4=O)cc3)C(=O)C2CC1SCCN(C)C)SCCN(C)C)SCCN(C)C (stereo not shown) [Compound 7] |  |  |  |  | Diameter (DLS; nm) [1]: 123.5 nm; Diameter (NTA; nm) [1]: 108.4 nm; PDI [1]: 0.113; Total Particles/ml [1]: 5.10E+10 Particles/ml; Zeta Potential (mV) [1]: −0.29 mV; Diameter (DLS; nm) [2]: 110.2 nm; Diameter (NTA; nm) [2]: 90.8 nm; PDI [2]: 0.224; Total Particles/ml [2]: 5.52E+11 Particles/ml; Zeta Potential (mV) [2]: 0.96 mV; Avg IM flux n = 2 [3]: 2.4E+5
3 | CC(C)C(CCC1CC2C(=O)N(c3ccc(N4C(=O)C5CC(CCC(SCCN(C)C)C(C)C)C(SCCN(C)C)CC5C4=O)cc3)C(=O)C2CC1SCCN(C)C)SCCN(C)C (stereo not shown) [Compound 8] |  |  |  |  | Avg IM flux n = 2 [3]: 8.31E+4
4 | CC(C)C(CCC(C)C(CCC1CCC(C(=O)OCCCCCCOC(=O)C2CCC(CCC(SCCN(C)C)C(C)CCC(SCCN(C)C)C(C)C)C(SCCN(C)C)C2)CC1SCCN(C)C)SCCN(C)C)SCCN(C)C (stereo not shown) [Compound 10] | 0.403 | 291.2 | 0.120 | 254.1 | 
5 | CC(C)C(CCC(C)C(CCC1CCC(C(=O)OCCCCCCCCCCCCOC(=O)C2CCC(CCC(SCCN(C)C)C(C)CCC(SCCN(C)C)C(C)C)C(SCCN(C)C)C2)CC1SCCN(C)C)SCCN(C)C)SCCN(C)C (stereo not shown) [Compound 11] | 0.366 | 511.8 | 0.156 | 270.4 | 
6 | CC(C)C(CCC(C)C(CCC1CCC(C(=O)OCCCCCCCCCCCCCCCCCCCCOC(=O)C2CCC(CCC(SCCN(C)C)C(C)CCC(SCCN(C)C)C(C)C)C(SCCN(C)C)C2)CC1SCCN(C)C)SCCN(C)C)SCCN(C)C (stereo not shown) [Compound 12] | 0.251 | 228.0 | 0.216 | 162.7 | 
7 | CC(C)C(CCC1CCC(C(=O)OCCCCCCOC(=O)C2CCC(CCC(SCCN(C)C)C(C)C)C(SCCN(C)C)C2)CC1SCCN(C)C)SCCN(C)C (stereo not shown) [Compound 14] | 0.272 | 392.2 | 0.249 | 222.5 | 
8 | CC(C)C(CCC1CCC(C(=O)OCCCCCCCCCCCCOC(=O)C2CCC(CCC(SCCN(C)C)C(C)C)C(SCCN(C)C)C2)CC1SCCN(C)C)SCCN(C)C (stereo not shown) [Compound 15] | 0.201 | 375.6 | 0.208 | 267.1 | 
9 | CC(C)C(CCC1CCC(C(=O)OCCCCCCCCCCCCCCCCCCCCOC(=O)C2CCC(CCC(SCCN(C)C)C(C)C)C(SCCN(C)C)C2)CC1SCCN(C)C)SCCN(C)C (stereo not shown) [Compound 16] | 0.277 | 149.8 | 0.327 | 188.8 | 
10 | CC(C)C(CCC(C)C(CCC1CCC(C(=O)OCCCCCCSCCCCCCCCSCCCCCCOC(=O)C2CCC(CCC(SCCN(C)C)C(C)CCC(SCCN(C)C)C(C)C)C(SCCN(C)C)C2)CC1SCCN(C)C)SCCN(C)C)SCCN(C)C (stereo not shown) [Compound 20] | 0.189 | 229.6 | 0.211 | 221.0 | 
11 | CC(C)C(CCC1CCC(C(=O)OCCCCCCSCCCCCCCCSCCCCCCOC(=O)C2CCC(CCC(SCCN(C)C)C(C)C)C(SCCN(C)C)C2)CC1SCCN(C)C)SCCN(C)C (stereo not shown) [Compound 21] | 0.230 | 161.1 | 0.273 | 144.9 | 
